Experimental data reported in US6713474B2, “Pyrrolopyrimidines as therapeutic agents” (Abbott GmbH & Co. KG, priority 1998, dated 2004).

| melting point [°C] | SMILES |
| --- | --- |
| 252 to 254 | Nc1ncnc2c1c(-c1ccc(Oc3ccccc3)cc1)cn2C1CCC(=O)CC1 [Example 175, 4-[4-Amino-5-(4-phenoxyphenyl)-7H-pyrrolo[2,3-d]pyrimidin-7-yl]cyclohexanone] |
| 101 to 104 | Nc1ncnc2c1c(-c1ccc(Oc3ccccc3)cc1)cn2[C@H]1CC[C@@H](N2CCCC2)CC1 [Example 193, cis-5-(4-Phenoxyphenyl)-7-(4-pyrrolidinocyclohex-1-yl)-7H-pyrrolo[2,3-d]pyrimidin-4-ylamine] |
| 207.5 to 210 | CN(C)[C@H]1CC[C@H](n2cc(-c3ccc(Oc4ccccc4)cc3)c3c(N)ncnc32)CC1 [Example 196, Trans-7-(4-Dimethylaminocyclohexyl)-5-(4-phenoxyphenyl)-7H-pyrrolo[2,3-d]pyrimidin-4-ylamine] |
| 180 to 182 | CN(C)[C@H]1CC[C@@H](n2cc(-c3ccc(Oc4ccccc4)cc3)c3c(N)ncnc32)CC1 [Example 196, cis-7-(4-Dimethylaminocyclohexyl)-5-(4-phenoxyphenyl)-7H-pyrrolo[2,3-d]pyrimidin-4-ylamine] |
| 199 to 200 | Nc1ncnc2c1c(-c1ccc(Oc3ccccc3)cc1)cn2C1CCC(O)CC1 (stereo not shown) [Example 243, 4-[4-Amino-5-(4-phenoxyphenyl)-7H-pyrrolo[2,3-d]pyrimidin-7-yl]cyclohexanol] |

Second part, the molecule before the results:

| SMILES | melting point [°C] |
| --- | --- |
| Nc1ncnc2c1c(-c1ccc(Oc3ccccc3)cc1)cn2CCCCCCCCN1C(=O)c2ccccc2C1=O [Example 169, 5-(4-Phenoxyphenyl)-7-(8-phthalimidooctyl)-7H-pyrrolo[2,3-d]pyrimidin-4-ylamine] | 85 to 86 |
| Nc1ncnc2c1c(-c1ccc(Oc3ccccc3)cc1)cn2CCN1C(=O)c2ccccc2C1=O [Example 171, N-{2-[4-Amino-5-(4-phenoxyphenyl)-7H-pyrrolo[2,3-d]pyrimidin-7-yl]ethyl}phthalimide] | 111 to 112 |
| CC(C)C(=O)n1cc(-c2ccc(Oc3ccccc3)cc2)c2c(N)ncnc21 [Example 173, 7-Isobutyryl-5-(4-phenoxyphenyl)-7H-pyrrolo[2,3-d]pyrimidin-4-ylamine] | 160.5 to 161 |
| Nc1ncnc2c1c(-c1ccc(Oc3ccccc3)cc1)cn2C1CCC2(CC1)OCCO2 [Example 174, 5-(4-Phenoxyphenyl)-7-(1,4-dioxaspiro[4,5]decan-8-yl)-7H-pyrrolo[2,3-d]pyrimidin-4-ylamine] | 193 to 194 |
| N#Cc1cccnc1-n1cc(-c2ccc(Oc3ccccc3)cc2)c2c(N)ncnc21 [Example 180, 2-[4-Amino-5-(4-phenoxyphenyl)-7H-pyrrolo[2,3-d]pyrimidin-7-yl]pyridine-3-carbonitrile] | 242 to 242.5 |
| CC(C)(C)OC(=O)N1CCC(n2cc(-c3ccc(Oc4ccccc4)cc3)c3c(N)ncnc32)CC1 [Example 200, tert-Butyl 4-[4-Amino-5-(4-phenoxyphenyl)-7H-pyrrolo[2,3-d]pyrimidin-7-yl]-1-piperidinecarboxylate] | 168.5 to 169.5 |
| CC(C)(C)OC(=O)N1CCC(n2cc(-c3ccc(Oc4ccccc4)cc3)c3c(N)ncnc32)C1 (stereo not shown) [Example 203, tert-Butyl 3-[4-Amino-5-(4-phenoxyphenyl)-7H-pyrrolo[2,3-d]pyrimidin-7-yl]-1-pyrrolidinecarboxylate] | 168 to 170 |
| Nc1ncnc2c1c(-c1ccc(Oc3ccccc3)cc1)cn2C1CCNC1 (stereo not shown) [Example 205, 5-(4-Phenoxyphenyl)-7-(3-pyrrolidinyl) -7H-pyrrolo[2,3-d]pyrimidin-4-ylamine] | 182 to 184 |
